Data taken from paper PMC5136666, “Epobis is a Nonerythropoietic and Neuroprotective Agonist of the Erythropoietin Receptor with Anti-Inflammatory and Memory Enhancing Effects” (Mediators of Inflammation, 2016).
Positions of bridges follow the written chain, without caps; N, C: chain ends. Chains are numbered I, II in the order given. No end group written: not given here.

Key:
EAE in Lewis rats = test: Experimental autoimmune encephalomyelitis (EAE); format: in vivo
Procedure: Experimental autoimmune encephalomyelitis (EAE) was induced as described previously. Briefly, female Lewis rats (200 g) received subcutaneous injections at both sides of the base of the tail with 0.2 mL of an emulsion containing 1 g/L Guinea pig myelin basic protein and 1 g/L M. tuberculosis in Freund's complete adjuvant (all from Sigma-Aldrich). The injections were performed under full inhalation anesthesia. EAE was induced in 30 animals; 6 healthy, age-matched, unimmunized rats were used as controls. Between day 0 and day 21, the weight and clinical signs of EAE were recorded daily for all animals. Clinical signs were scored as follows: 0, no abnormality; 0.5, weak tail; 1, limp tail; 2, mild palsy of one or both hind legs; 3, severe palsy of one or both hind legs; 4, complete paralysis of one or both hind legs; 5, paralysis of one or both hind legs and beginning paralysis of front legs; 6, moribund. Animals with a clinical score ≥4 were sacrificed immediately.
Starting at day 10 after induction of EAE, animals were treated once/day for 5 consecutive days with Epobis (10 mg/kg, 1 mL/kg, s.c.) or PBS (1.0 mL/kg, s.c.). The control group is identical to the control group of previously published data performed simultaneously with the Epobis study.

EPO receptor = details: surface plasmon resonance; read-out: apparent KD; cited from earlier work
Description: We have previously designed two synthetic, dendrimeric peptides with sequences corresponding to the first and the second EPO receptor binding site of human EPO, respectively. The peptide derived from binding site 2 was named Epotris and has previously been reported to promote neuritogenesis and neuronal survival in vitro and in vivo in a nonerythropoietic manner and to attenuate status epilepticus. The peptide derived from binding site 1 (residues 36–53 in the structural model of the EPO:EPO receptor-complex; PDB: 1EER [27]) was named Epobis, and surface plasmon resonance analy ...

[1] = Detection of Epobis in plasma and cerebrospinal fluid; format: in vivo, Wistar rats; details: rat
Procedure: Detection of biotinylated Epobis in plasma was performed essentially as described previously. Briefly, 10 mg/kg Epobis was injected subcutaneously (s.c.) in anaesthetized 200 g Wistar rats, and blood samples were collected from the orbital plexus at selected time points. Cerebrospinal fluid (CSF) was sampled from the cisterna magna as described previously.
Subsequently the concentrations of peptide in serum plasma and CSF were estimated using a competitive enzyme-linked immunosorbent assay, where all samples were run in duplicate.

[2] = tested on: short-term/working memory of adult rats; test: Social recognition test; format: in vivo, rat; details: 10 mg/kg single s.c., healthy adult rats
Procedure: The social recognition assay evaluates short-term/working memory of adult rats, a type of memory known to be impaired in old (>18 month) rats and in rats experiencing early stage AD [38]. Social recognition in rats was evaluated essentially as described previously. First, a habituation session was carried out; 24 h later, Epobis (10 mg/kg, 1 mL/kg, s.c.) or PBS (1.0 mL/kg, s.c.) was administered, and 1 h later the test animals were introduced to a new, juvenile male rat for 4 min (initial trial). After another 2.5 h the same juvenile rat was reintroduced, or as a control, an unfamiliar juvenile rat was introduced (test trial). To test long-term effects of the peptide, another social recognition test was performed with the initial trial taking place 73 h after administration of test compounds. Data are expressed as a recognition ratio: RR = T2/(T2 + T1), where T1 and T2 are the times spent on investigating the juvenile animal during the initial and the test trial, respectively.

[3] = tested on: TNF secretion from rat primary microglia; test: LPS-induced TNF release from rat primary microglia (ELISA); format: cell-based; details: 0.9 μM, 1 h pretreatment, LPS 100 ng/mL 24 h, p < 0.05, 3 experiments
Procedure: Mixed glial cultures were prepared from 1-day-old to 2-day-old Wistar rat pups as described previously. Briefly, cortices were dissected, roughly chopped, and incubated in prewarmed 0.5% trypsin for 10 min. Then Dulbecco's modified Eagle's medium (DMEM) plus GlutaMAX (culture media; Gibco) containing 10% fetal calf serum, penicillin (100 U/mL), and streptomycin (100 U/mL) was added and tissue was triturated. The suspension was centrifuged at 500 ×g for 10 min, and the resulting pellet was resuspended in culture media and plated in a poly-L-lysine-coated T180 flask. The mixed glial culture was grown for 2-3 weeks at 37°C in a humidified 5% CO2 : 95% air environment. The medium was changed first at day 2 after culture preparation and then every 5-6 days. […] Images were recorded using a Zeiss Axiovert 100 microscope mounted with an AxioCam MRm camera using the accompanying ZEN 2012 software.
To induce TNF secretion, microglia cells were treated with lipopolysaccharide (LPS; 100 ng/mL; Sigma) following 1 h pretreatment in the absence or presence of Epobis. Conditioned media were collected 24 h later and released TNF was determined using a rat TNF Ready-SET-Go!® ELISA kit according to the manufacturer's instructions (eBioscience, San Diego, USA).

primary rat motoneurons = test: Neurite outgrowth from primary motoneurons; format: cell-based; details: 24 h, bell-shaped concentration dependence, p < 0.0001, 3 independent experiments
Procedure: Primary rat motoneurons were isolated as described previously. Briefly, the ventral horns of the lumbar spinal cord were dissected from Wistar rat embryos (E15). The dissociated motoneurons were plated at a density of 7,000 cells per well on laminin-coated (5 μg/mL; Sigma-Aldrich) 8-well LabTek Permanox slides (NUNC, Denmark). Neurons were stimulated with serially diluted Epobis peptide for 24 h, fixed with 4% formalin, stained with polyclonal rabbit anti-rat growth-associated protein-43 antibodies (1 : 1000; Millipore), and analyzed by computer-assisted fluorescence microscopy as described.

[4] = tested on: TNF secretion from AMJ2-C8 macrophages; test: Macrophage activation assay (TNF secretion estimated from L-cell viability); format: cell-based, mouse; details: untreated ~48%, MTS, 4 experiments
Procedure: The macrophage activation assay is used to estimate tumor necrosis factor (TNF) secretion from the macrophage cell line AMJ2-C8 (ATCC; Boras, Sweden). Fibroblastoid mouse L929 cells (L-cells; ECCC, Salisbury, UK) are sensitive to TNF upon exposure to actinomycin D, and L-cell survival can therefore be utilized as an indirect estimate of TNF concentrations. The assay was performed essentially as described previously. Briefly, AMJ2-C8 cells were plated in 6-well MultiDish plates (Nunc, Denmark) and treated with 100 μM hydrocortisone (Sigma-Aldrich, Brøndby, Denmark), […] (8.4 nM) rhEPO (Calbiochem, Merck Millipore, Denmark), or Epobis (0.9–8.1 μM) for 24 h. They were then exposed to 10 ng/mL interferon-γ (IFN-γ) (R&D Systems, UK) for 24 h to induce the production of TNF [34].
L-cells were seeded in 96-well Multiwell plates (2 × 10^5 cells/mL, 100 μL/well; Nunc) and grown for 24 h. Then conditioned medium from stimulated macrophages was collected and added to the L-cells together with actinomycin D (Sigma, Sigma-Aldrich). L-cell viability was assayed 24 h later by the MTS assay (Promega, Madison, WI, USA) according to the manufacture's protocol. Cell viability was calculated as follows: (1) cell viability %=ODexperiment/ODcontrol×100. […]

[5] = tested on: hematocrit and hemoglobin levels in mice; test: Hematopoiesis assay; format: in vivo; details: 10 mg/kg s.c. twice per week for 5 weeks, female C57BL/6J mice
Procedure: Estimates of hematopoietic activity of Epobis in female C57BL/6J mice were performed essentially as described previously. Briefly, Epobis (10 mg/kg), EPO (10 mg/kg; Calbiochem), or vehicle (PBS) was injected subcutaneously twice per week for 5 weeks. Blood samples were collected from the orbital plexus once per week, and hemoglobin levels and hematocrit values were determined as described.

[6] = 10 mg/kg s.c. once/day for 5 days from day 10, Lewis rats
[7] = biotinylated Epobis, 10 mg/kg single s.c., competitive ELISA, n = 6

| Substance | effect on survival of EAE animals versus vehicle (EAE in Lewis rats; [6]) | effect on weight changes of EAE animals versus vehicle (EAE in Lewis rats; [6]) | activated microglia in the brain stem of EAE animals, Epobis versus vehicle (EAE in Lewis rats; 10 mg/kg s.c. once/day for 5 days from day 10, immunohistochemistry) | clinical signs of EAE versus vehicle, later time points (EAE in Lewis rats; 10 mg/kg s.c. once/day for 5 days from day 10, n = 10) | clinical signs of EAE versus vehicle, day 2 after onset (EAE in Lewis rats; 10 mg/kg s.c. once/day for 5 days from day 10, n = 10, p < 0.05) | Kd (EPO receptor) [nM] | plasma : CSF ratio ([1]; 2 h after single s.c. 10 mg/kg) | time of peak plasma concentration [1, 7] | time the peptide remained detectable in blood [1, 7] | recognition ratio (RR) versus vehicle, test 73 h after administration ([2]; n = 12, t-test p < 0.018, different from 0.5 p < 0.0001) | recognition ratio (RR) versus vehicle, test 1 h after administration ([2]; n = 12, t-test p > 0.05) | LPS-induced TNF secretion from microglia [3] | concentration of maximal stimulation of neurite outgrowth (primary rat motoneurons) [µM] | L-cell viability relative to control (highest) ([4]; conditioned medium from IFN-γ-activated AMJ2-C8 macrophages pretreated 24 h with 2.7 μM Epobis, p < 0.05) | effect on hematocrit [5] | effect on hemoglobin levels [5] | L-cell viability relative to control ([4]; conditioned medium from IFN-γ-activated AMJ2-C8 macrophages pretreated 24 h with 8.4 nM EPO) |
| --- | --- | --- | --- | --- | --- | --- | --- | --- | --- | --- | --- | --- | --- | --- | --- | --- | --- |
| I: NENITVPDTKVNFYAWKRKK-NH2 / II: NENITVPDTKVNFYAWKRK / III: NENITVPDTKVNFYAWKR / IV: NENITVPDTKVNFYAWKR (amide I:19-IV:C, I:20-II:C, II:19-III:C; C-terminus assumed) [Epobis] | no significant effects | no significant effects | no difference | not significantly different | significantly lower | ~60 | approximately 20 | around 2 h | at least 24 h | significantly lower | no significant difference | significant decrease | 0.33 | ~ 68% | did not cause any statistically significant increases | did not cause any statistically significant increases | – |
| erythropoietin [EPO] | – | – | – | – | – | – | – | – | – | – | – | – | – | – | statistically significant increases | statistically significant increases | ~ 64% |
